Experimental findings from patent US20080207632A1, “PROTEIN KINASE INHIBITORS” (SUPERGEN, INC., priority 2006, published 2008) are described below.

The structures appear in SMILES notation.

For the first assay, the target named is T1, aurora-2 kinase (Homo sapiens, UniProt O14965).
T1 construct: purchased Upstate, Lake Placid, N.Y; host or cells: sf9 cells
T1 sequence (O14965 1-403): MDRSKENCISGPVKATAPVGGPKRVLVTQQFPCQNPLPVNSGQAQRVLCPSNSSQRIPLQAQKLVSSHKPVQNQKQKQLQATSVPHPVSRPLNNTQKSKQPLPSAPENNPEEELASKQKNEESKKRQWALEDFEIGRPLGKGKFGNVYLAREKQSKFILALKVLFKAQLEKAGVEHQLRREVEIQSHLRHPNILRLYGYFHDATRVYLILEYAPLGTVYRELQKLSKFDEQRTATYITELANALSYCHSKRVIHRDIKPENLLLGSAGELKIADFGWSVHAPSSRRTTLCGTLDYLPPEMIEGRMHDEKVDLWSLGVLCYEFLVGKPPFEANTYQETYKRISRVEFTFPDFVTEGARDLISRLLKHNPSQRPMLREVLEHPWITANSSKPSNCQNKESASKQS
In words: aurora-2 kinase inhibition assay (Kinase-Glo, ATP remaining). Format: biochemical. The settings on record: Example 17; 3 μM ATP; read-out: IC50 (drug concentration at which 50% of aurora-2 kinase activity was inhibited). Here is the method:
In this assay kinase activity was determined by quantifying the amount of ATP remaining in solution following a kinase reaction by measuring the light units (LU) produced by luciferase using a luminometer. Percent inhibition was determined for individual compounds by comparing luminometer readings of drug-treated reactions to controls containing no drug (DMSO control) and no Aurora-2 enzyme (ATP control) in the following equation: […]
(§1) In a 50 μl reaction, recombinant aurora-2 kinase produced in sf9 cells (Upstate, Lake Placid, N.Y.) was incubated at 30° C. for two hours with 62.5 μM Kemptide (Calbiochem, San Diego, Calif.), 3 μM ATP (Invitrogen, Carlsbad, Calif.) and kinase reaction buffer (40 mM Tris-HCl, 10 mM MgCl2 and 0.1 μg/μl bovine serum albumin (BSA)). This reaction was carried out in the presence of drug substances, which had been previously diluted to desired concentrations in DMSO. After incubation, 50 μl of Kinase-Glo® (Promega, Inc., Madison, Wis.) solution was added to each reaction mixture and allowed to equilibrate for 10 minutes at room temperature. Kinase-Glo solution contains luciferase enzyme and luciferin, which react with ATP to produce light. Kinase activity is determined by quantifying the amount of ATP remaining in solution following the kinase reaction by measuring the light units (LU) produced by luciferase using a luminometer (Thermo-Electron, Vantaa, Finland).
Briefly, kinase activity was determined by quantifying the amount of ATP remaining in solution following a kinase reaction by measuring the light units (LU) produced by luciferase using a luminometer. Percent inhibition was determined for individual compounds by comparing luminometer readings of drug-treated reactions to controls containing no drug (DMSO control) and no Aurora-2 enzyme (ATP control) in the following equation: […]
as §1, with “μg/Il” for “μg/μl”
Illustrative compounds 2-3, 2-5, 2-7, 2-4 and 2-9 were evaluated in an aurora-2 kinase inhibition assay. In this assay kinase activity was determined by quantifying the amount of ATP remaining in solution following a kinase reaction by measuring the light units (LU) produced by luciferase using a luminometer. Percent inhibition was determined for individual compounds by comparing luminometer readings of drug-treated reactions to controls containing no drug (DMSO control) and no Aurora-2 enzyme (ATP control) in the following equation: […]
(In Kinase-Glo more light means more ATP remaining.)
For the compound `CC(=O)NS(=O)(=O)c1ccc(NC(=S)N2CCN(c3ncnc4[nH]c5cc(C(F)(F)F)c(Cl)cc5c34)CC2)cc1` [Compound 1-1, 4-(6-Chloro-7-trifluoromethyl-9H-pyrimido[4,5-b]indol-4-yl)-piperazine-1-carbothioic acid (4-acetylsulfamoyl-phenyl)-amide], the IC50 was 49 nM.
Same read-out and setting: as for `COc1cc2[nH]c3ncnc(N4CCN(C(=S)Nc5ccc(S(=O)(=O)NC(C)=O)cc5)CC4)c3c2cc1OC` [Compound 1-2, 4-(6,7-Dimethoxy-9H-pyrimido[4,5-b]indol-4-yl)-piperazine-1-carbothioic acid (4-acetylsulfamoyl-phenyl)-amide], the figure is < 5 nM.

Staying with this assay, now noted: Example 20; unit from the table's spanning head; read-out: IC50 A2K.
`COc1cc2[nH]c3ncnc(N4CCN(C(=S)Nc5ccc(S(=O)(=O)NC(C)=O)cc5)CC4)c3c2cc1OC` [Compound 1-2, 4-(6,7-Dimethoxy-9H-pyrimido[4,5-b]indol-4-yl)-piperazine-1-carbothioic acid (4-acetylsulfamoyl-phenyl)-amide]: the IC50 is ≤ 5 nM.
On the same count and under the same terms, as for `CC(=O)NS(=O)(=O)c1ccc(NC(=S)N2CCN(c3ncnc4[nH]c5ccc(Cl)cc5c34)CC2)cc1` [Compound 1-3, 4-(6-chloro-9H-pyrimido[4,5-b]indol-4-yl)-piperazine-1-carbothioic acid (4-acetylsulfamoyl-phenyl)-amide], the figure is 74 nM; as for `CC(=O)NS(=O)(=O)c1ccc(NC(=S)N2CCN(c3ncnc4[nH]c5cc(F)ccc5c34)CC2)cc1` [Compound 1-4], 23 nM.
For `COc1cc2c(cc1O)[nH]c1ncnc(N3CCN(C(=S)Nc4ccc(S(=O)(=O)NC(C)=O)cc4)CC3)c12` [Compound 1-8], the IC50 worked out at 18 nM.
Still for that read-out and setting: as for `COc1cc2[nH]c3ncnc(N4CCN(C(=S)Nc5ccc(S(=O)(=O)N6CCOCC6)cc5)CC4)c3c2cc1OC` [Compound 1-26], the figure is 317 nM; as for `COc1cc2[nH]c3ncnc(N4CCN(C(=S)Nc5ccc(NC(=O)C6CC6)cc5)CC4)c3c2cc1OC` [Compound 1-34], 2090 nM; as for `COc1cc2[nH]c3ncnc(N4CCN(C(=S)Nc5ccc(NC(C)=O)cc5)CC4)c3c2cc1OC` [Compound 1-42], 4970 nM.
Still for that read-out and setting: under `COc1cc2[nH]c3ncnc(N4CCN(C(=S)Nc5ccc(S(N)(=O)=O)cc5)CC4)c3c2cc1OC` [Compound 1-107] stands 586 nM; under `COc1cc2[nH]c3ncnc(N4CCN(C(=S)Nc5ccc(S(C)(=O)=O)cc5)CC4)c3c2cc1OC` [Compound 1-115], 743 nM.

The same assay, now with this note: Example 54, Table 8; 3 μM ATP; read-out: Aurora-2 Inhibition, IC50.
Consider `COc1cc2[nH]c3ncnc(N4CCN(C(=S)Nc5ccc(S(=O)(=O)Nc6ccc(F)cc6)cc5)CC4)c3c2cc1OC` [Compound 2-3, 4-(6,7-dimethoxy-9H-pyrimido[4,5-b]indol-4-yl)-N-(4-(N-(4-fluorophenyl)sulfamoyl)phenyl)piperazine-1-carbothioamide], for which the IC50 was 110 nM.
Still for that read-out and setting: as for `COc1ccc2c(c1)[nH]c1ncnc(N3CCN(C(=S)Nc4ccc(S(=O)(=O)Nc5ccc(F)cc5)cc4)CC3)c12` [Compound 2-5, 4-(7-methoxy-9H-pyrimido[4,5-b]indol-4-yl)-N-(4-(N-(4-fluorophenyl)sulfamoyl)phenyl)piperazine-1-carbothioamide], the figure is 569 nM; as for `Cc1ccc(NS(=O)(=O)c2ccc(NC(=S)N3CCN(c4ncnc5[nH]c6cc(Cl)c(N7CCOCC7)cc6c45)CC3)cc2)cc1` [Compound 2-9, 4-(7-chloro-6-morpholino-9H-pyrimido[4,5-b]indol-4-yl)-N-(4-(N-tolylsulfamoyl)phenyl)piperazine-1-carbothioamide], 837 nM.
